Paper PMC10987543 (Cell Death Discovery, 2024)
“Also recorded” adds a separate entry of the source. Ends that are not written are not given here.

Assays:
[1] = system: CT26 tumors; experiment: CT26 colon carcinoma model, intratumoral treatment; assay type: in vivo, Balb/c mice; details: 40 mg/kg intratumoral daily from day 7, N = 10
Experimental: The protocols used in this study were approved by the Institutional Care and Use Committee at Johns Hopkins Medical Institutions. Four- to eight-week-old female Balb/c mice were obtained from Charles River (Wilmington, MA). For the 4T1 […] model, 2.5 × 10^4 4T1 cells were injected into the first mammary fat pad of each mouse. For the CT26 colon carcinoma model, 1.0 × 10^6 CT26 cells were injected subcutaneously in the left flank. The sample size was determined so that the final distribution would be close to normal distribution. After 1 week, the animals were randomized into control and CKS1 treatment. During the randomization, the mice were kept in a cage covered with cloth so that the investigator could not see the tumor size. We started daily intratumoral treatment with 40 mg/kg CKS1. For the control group, the matching volume of water was treated intratumorally. The tumor size was measured by using a caliper, and the volume was calculated by using the formula 0.52 × (length) × (width)^2.

[2] = system: 4T1 murine TNBC cells; experiment: Real-time cell viability assay (xCELLigence RTCA); assay type: cell-based; details: serum-free media, dose-dependent, representative of N = 3
Experimental: Three thousand cells were seeded in the wells of an xCELLigence RTCA E-plate 16 (Agilent, Santa Clara, CA). After the cells adhered to the plate, the media was replaced with serum-free media, and the cells were treated with CKS1 at the indicated concentrations. The viability of the cells was monitored using the xCELLigence RTCA analyzer (Agilent).

[3] = system: 4T1 cells; experiment: Quantification of ATP release; assay type: cell-based, murine; details: 20 µM or 100 µM, 30 min, N = 3
Experimental: (§1) Two-lakh cells of 4T1 cells or CT26 cells in growth media were seeded in wells of a 96-well plate. After 12 h, the media was replaced with serum-free media, and the cells were treated with the corresponding concentration of CKS1. […] After filtering the supernatant with a 0.2 µm pore filter (Corning, 431229), the amount of ATP in the supernatant was quantified using the ENLITEN ATP assay system (Promega Corporation, Madison, WI, FF2000). We followed the instructions from the manufacturer when using the ENLITEN ATP assay system.

[4] = system: CT26 cells; experiment: Quantification of ATP release; assay type: cell-based, murine; details: 20 µM or 100 µM, 30 min, N = 3
Experimental: as §1

[5] = system: 4T1 cells; experiment: Calcein-AM live cell imaging of cytosol release; assay type: cell-based, murine
Experimental: (§2) Fluorescence labeling of cells was performed by seeding 5.0 × 10^4 4T1 cells in a 35 mm dish on a collagen-coated No. 1.5 coverslip with a 14 mm glass diameter (MatTek, Ashland, MA). After overnight incubation, the cells were washed once with serum-free media and replaced with fresh serum-free media. For cell cytosol labeling, Calcein-AM (Thermo Fisher Scientific, C1430) was added at a final concentration of 5 µg/mL and incubated for 10 min. For mitochondrial membrane labeling, JC-1 (Thermo Fisher Scientific, T3168) was added at a final concentration of 10 µg/mL and incubated for 10 min. To monitor the activity of caspases, CellEvent Caspase-3/7 Red detection reagents (Thermo Fisher Scientific, C10423) were used following the manufacturer’s instructions. For nuclear staining, Hoechst 33342 (Cell Signaling Technology, #4082) was added at a final concentration of 5 µg/mL and incubated for 10 min.
Cells were imaged on either a Zeiss LSM 700 or a 3i spinning disk confocal microscope. Samples were imaged with optimized microscope settings. Z-stack, time-lapse, or multi-channel acquisition settings were adjusted based on the experimental requirements. Images were then acquired with the appropriate excitation and emission wavelengths for each fluorophore.
(§3) Image processing was performed using Fiji software. For each image/video, the brightness and the contrast were adjusted. The time stamp and the scale bar were added. For quantification, CellProfiler was used. After cell segmentation based on the nucleus, the intensity of the signal of interest was quantified for each cell. Based on the intensity, each cells were labeled as positive or negative and the fraction of positive cells was calculated.

[6] = system: DC2.4 murine dendritic cells; experiment: Immunogenicity experiment: cytokine expression in dendritic cells (qPCR); assay type: cell-based; details: DC2.4 cells, 2 h with conditioned media from 4T1 cells treated with 100 µM CKS1; N = 4
Experimental: Two-lakh cells of 4T1 cells were seeded in wells of a 6-well plate. After overnight incubation, the media was replaced with 500 µL of fresh media, and 4T1 cells were treated with either 100 µM CKS1 or water for 2 h. In a separate well, 500 µL of fresh media was added and 100 µM CKS1 was incubated for 2 h. After the 2 h of incubation, all the supernatant was collected, filtered with 0.22 µm syringe filter, and was stored at −80 °C. Five lakh cells of DC2.4 cells were seeded in wells of a 24-well plate. After overnight incubation, the media was replaced with fresh media, supernatant from 4T1 cells treated with water, supernatant from 4T1 cells treated with 100 µM CKS1, or media containing 100 µM CKS1. DC2.4 cells were incubated for 2 h before RNA extraction.
RNA extraction was conducted using QIAwave RNA Mini Kit (Qiagen, Germany, 74535) following the manufacturer’s instructions. […]
Real-time qPCR was conducted using PowerUp SYBR Green Master Mix for qPCR (Thermo Fisher Scientific, A25741) following the manufacturer’s instructions. […] The relative quantity of TNF, IL-6, and IL-12b was normalized to the relative quantity of GAPDH. Finally, the expression level of the cytokines was normalized to the control sample and the fold change was calculated.

[7] = system: caspase-3 or caspase-7; experiment: CellEvent Caspase-3/7 live cell imaging; assay type: cell-based, murine; details: 4T1 cells, 100 µM
Experimental: as §2
Cells were imaged on either a Zeiss LSM 700 or a 3i spinning disk confocal microscope. Samples were imaged with optimized microscope settings. […]
as §3, with “For each image/video, the brightness and the contrast were adjusted. The time stamp and the scale bar were added.” left out

[8] = system: 4T1 cells; experiment: LDH release assay (CyQUANT); assay type: cell-based, murine; details: 6 h, indicated concentrations, normalized to lysis buffer
Experimental: Ten thousand cells were seeded in a 96-well plate and incubated overnight. The cells were washed once, and the medium was replaced with serum-free media. Cells were treated with CKS1 for the indicated time and concentration. CyQUANT LDH cytotoxicity assay (Thermo Fisher Scientific) was used following the manufacturer’s instructions to measure the release of LDH. LDH release was normalized to the amount of LDH released from cells treated with lysis buffer.

For “NGRKACLNPASPIVKKIIEKMLNS-NH2 [CKS1, Chemokinostatin-1]”, the “tumor growth (tumor volume)” value [1] was “inhibited; also recorded: highly sensitive”, the “time to cell death (reduction in cell index) after treatment” value [2] was ≤ 1 h and the “release of ATP in the culture media” value [3] was “significant release of ATP”. The “release of ATP in the culture media” value [4] was “significant release of ATP”, the “time to release of cytosol (calcein) after treatment” value ([5]; 4T1 cells stained with calcein-AM, 100 µM, representative of N = 3) was 15 to 30 min and the “fraction of cancer cells with damaged cell membrane” value ([5]; concentration significantly higher than the IC50 value) was ~100%. The “expression level of TNF, IL-6, IL-12b” value [6] was “significantly increased the expression level of the cytokines”, the “fraction of cells with activated caspases” value [7] was “increased over time” and the “release of LDH” value [8] was “released significant amounts of LDH”.
